Measurements taken from patent publication US20250388575A1, “HETEROBIFUNCTIONAL COMPOUNDS AND METHODS OF TREATING DISEASE” (Halda Therapeutics OpCo, Inc., priority 2022, published 2025).

How the values were obtained:
[1] = system: T-Rex 293 cell line SC cells having increased expression of progesterone receptor isoform B protein; test: Cellular growth inhibition, T-Rex 293 SC cells with increased progesterone receptor isoform B expression (doxycycline), CellTiter-Glo; assay type: cell-based; settings: progesterone receptor isoform B induced with 10 ng/mL doxycycline, 72 hours
Method: (§1) The following types of cells were prepared for this experiment: (i) a T-Rex 293 cell line having increased expression of progesterone receptor isoform B protein due to exposure to doxycycline and (ii) a T-Rex 293 cell line lacking increased expression of progesterone receptor isoform B protein. Ability of the test compounds to inhibit proliferation of the foregoing cell types was evaluated according to the procedures set forth below.
(§2) The doxycycline-inducible progesterone receptor isoform B protein expressing cell line was established using the following protocol: T-Rex 293 cells were purchased from Invitrogen (Cat #R71007) and transfected using Lipofectamine 2000 with the wild-type progesterone receptor B protein sequence cloned into the pcDNA4/TO vector. Transfected cells were selected using 400 μg/mL Zeocin (Invitrogen Cat #R25001). Following selection, single clones were raised and maintained in Dulbecco's Modified Eagle Medium (DMEM) supplemented with 10% w/w Tetracycline-free fetal bovine serum (FBS) and 250 μg/mL Zeocin. Clones were analyzed for expression of progesterone receptor isoform B protein in the presence and absence of 10 ng/ml doxycycline (Sigma Cat #D9891), and a single doxycycline-inducible clone (hereinafter “SC”) was selected for use in downstream assays.
(§3) The SC cells were seeded on poly-D-lysine coated, black clear-bottom 384-well plates at 2500/well, in 25 μL Phenol Red Free Dulbecco's Modified Eagle Medium (DMEM) supplemented with 10% w/w charcoal-dextran treated fetal bovine serum (FBS) and 1% w/w pen-strep, with or without 10 ng/mL doxycycline. Pen-Strep is a commercially available mixture of penicillin G and streptomycin, which is used in mammalian cell culture media to prevent bacterial contamination. Phenol Red Free Dulbecco's Modified Eagle Medium (DMEM) supplemented with 10% w/w charcoal-dextran treated fetal bovine serum (FBS) and 1% w/w pen-strep, with or without 10 ng/mL doxycycline is herein referred to as Treatment Medium. Following seeding of cells in the plates, the plates were spun at 300×g for 30 seconds, then equilibrated to room temperature for 30 minutes, and then deposited in a humidified tissue culture incubator maintained at 37° C. with 5% CO2.
(§4) At 24 hours after seeding of the cells, dilutions of test compound were prepared in DMSO and dissolved in Treatment Medium, to achieve a final DMSO concentration of 0.5% w/w, thereby providing the Test Compound Solution. A 25 μL aliquot of the Test Compound Solution was added to cells in the well plates. An equal volume of a solution containing DMSO and Treatment Medium was used as a negative control. Following treatment of cells with Test Compound Solution or said equal volume of a solution containing DMSO and Treatment Medium, the plates were spun at 300×g for 30 seconds, and then left in an incubator for 72 hours.
(§5) At the end of the treatment duration, cell viability was quantified with CellTiter-Glo 2.0 reagent (Promega Cat #G9243). For this purpose, plates were equilibrated to room temperature for 30 minutes, and then 25 μL of CellTiter-Glo 2.0 reagent was added to cells in the plate wells. Plates were then agitated on a shaker for two minutes at 500 rpm and subsequently incubated at room temperature for 10 minutes. Following incubation, the plates were spun at 3000×g for 30 seconds, then sealed with an optical adhesive cover, and luminescence readings were measured with an EnVision Plate Reader (Perkin Elmer).
(§6) Data was normalized using zero luminescence for baseline. A four-parameter non-linear regression curve fit was applied to dose-response data in GraphPad Prism data analysis software to determine the half-maximal growth inhibitory concentration (GI50) for each test compound.

[2] = system: T-Rex 293 cell line SC cells lacking increased expression of progesterone receptor isoform B protein; test: Cellular growth inhibition, T-Rex 293 SC cells lacking increased progesterone receptor isoform B expression (no doxycycline), CellTiter-Glo; assay type: cell-based; settings: T-Rex 293 SC cells not exposed to doxycycline, 72 hours
Method: as §1, §2, §3, §4, §5, §6

[3] = system: T47D cells; test: Cellular growth inhibition assay for T47D cells, CellTiter-Glo; assay type: cell-based, human; settings: 72 hours treatment, CellTiter-Glo 2.0
Outline: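 Cells are plated at 3000/well and allowed 24 h before treatment. Test compound in medium containing 0.5% DMSO is then added, with DMSO-only wells as negative control, and plates are incubated 72 h at 37 °C. ATP luminescence (CellTiter-Glo 2.0) is then fitted to four parameters to derive GI50.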

[4] = molecular target: progesterone receptor ligand binding domain (LBD) (Homo sapiens (Human), UniProt P06401); test: FP assay for binding affinity to progesterone receptor (PolarScreen Progesterone Receptor Competitor Assay); settings: GST-tagged PR LBD, Fluormone tracer, fluorescence polarization, 2 hours at room temperature
Method: Compounds were tested using the PolarScreen™ Progesterone Receptor Competitor Assay Kit (Life Technologies Cat #A15905 or a15906), as per the manufacturer's instructions. Briefly, GST-tagged PR LBD, Fluormone tracer, and compound were mixed and incubated for 2 hours at room temperature in the dark. Following incubation, the plates were spun at 3000×g for 30 seconds, then sealed with an optical adhesive cover, and fluorescence polarization was measured using appropriate excitation and emission filters with an EnVision Plate Reader (Perkin Elmer). Compound concentration vs. mP value were plotted in Prism (GraphPad). A four-parameter non-linear regression curve fit was applied to dose-response data to determine the half-maximal inhibitory concentration (IC50) for each test compound.

[5] = molecular target: androgen receptor (Homo sapiens, UniProt P10275); test: Assay for binding affinity to androgen receptor ([3H]methyltrienolone radioligand, cell cytosol); settings: binding to the androgen receptor, 1 nM [3H]methyltrienolone, 24 hr at 4° C.
Method: Fractions of cell cytosol (106 cell/point) were incubated for 24 hr at 4° C. with 1 nM [^3H]methyltrienolone in the absence or presence of the test compound in a buffer containing 25 mM Hepes-Tris (pH 7.4), 1 mM EDTA, 10 mM Na2MoO4, 2 mM DTT, 5 µM triamcinolone acetonide, and 10% glycerol. Nonspecific binding was determined in the presence of 1 μM testosterone. Following incubation, the samples were filtered rapidly under vacuum through glass fiber filters (GF/B, Packard) presoaked with 0.3% PEI and rinsed several times with ice-cold 50 mM Tris-HCl using a 96-sample cell harvester (Unifilter, Packard). The filters were dried then counted for radioactivity in a scintillation counter (Topcount, Packard) using a scintillation cocktail (Microscint 0, Packard). The results are expressed as a percent inhibition of the control radioligand specific binding. The standard reference compound is testosterone, which is tested in each experiment at several concentrations to obtain a competition curve from which its IC50 is calculated.

Chain of progesterone receptor ligand binding domain (LBD) (P06401 679-913): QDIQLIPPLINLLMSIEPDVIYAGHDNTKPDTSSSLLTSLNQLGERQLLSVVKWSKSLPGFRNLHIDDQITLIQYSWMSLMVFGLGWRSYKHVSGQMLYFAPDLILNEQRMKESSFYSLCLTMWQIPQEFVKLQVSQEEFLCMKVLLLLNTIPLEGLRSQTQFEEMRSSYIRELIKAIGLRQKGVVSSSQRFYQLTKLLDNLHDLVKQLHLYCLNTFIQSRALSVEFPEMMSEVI
Chain of androgen receptor (P10275 whole entry, looked up): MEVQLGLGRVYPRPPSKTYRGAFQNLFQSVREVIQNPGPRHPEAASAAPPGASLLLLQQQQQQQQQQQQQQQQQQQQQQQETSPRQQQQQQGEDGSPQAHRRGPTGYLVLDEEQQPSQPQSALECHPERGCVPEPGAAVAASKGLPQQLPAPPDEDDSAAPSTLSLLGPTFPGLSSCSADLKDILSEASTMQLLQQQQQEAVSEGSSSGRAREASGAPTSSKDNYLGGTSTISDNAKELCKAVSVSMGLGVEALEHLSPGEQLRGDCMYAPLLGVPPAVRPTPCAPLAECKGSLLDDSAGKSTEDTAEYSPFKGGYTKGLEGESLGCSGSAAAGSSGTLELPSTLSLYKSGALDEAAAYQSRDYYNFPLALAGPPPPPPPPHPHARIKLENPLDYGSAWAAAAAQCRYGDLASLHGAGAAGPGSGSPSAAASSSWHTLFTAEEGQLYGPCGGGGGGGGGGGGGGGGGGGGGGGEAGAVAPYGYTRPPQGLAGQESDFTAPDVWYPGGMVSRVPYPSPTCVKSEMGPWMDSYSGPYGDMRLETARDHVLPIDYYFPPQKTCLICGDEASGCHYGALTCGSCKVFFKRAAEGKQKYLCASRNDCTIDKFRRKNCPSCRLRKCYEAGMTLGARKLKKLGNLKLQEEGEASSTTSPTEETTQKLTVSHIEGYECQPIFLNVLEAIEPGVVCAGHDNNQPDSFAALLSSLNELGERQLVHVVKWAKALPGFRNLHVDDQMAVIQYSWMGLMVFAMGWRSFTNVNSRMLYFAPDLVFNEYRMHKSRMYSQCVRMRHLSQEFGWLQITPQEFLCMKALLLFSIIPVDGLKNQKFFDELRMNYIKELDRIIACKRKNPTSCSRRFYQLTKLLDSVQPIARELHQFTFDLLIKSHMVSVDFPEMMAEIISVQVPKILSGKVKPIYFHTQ

Row | GI50 ([3]; Homo sapiens) | IC50 [4] | GI50 [3] | Compound | GI50 [1] | GI50 [2] | Kd [5]
1 | < 500 nM |  |  | CCS(=O)(=O)c1ccc(Oc2cccc(CCCOC3CC4(C3)CN(c3ccc(C(=O)N[C@H]5CC[C@H](Oc6ccc(C#N)c(Cl)c6)CC5)nn3)C4)c2F)c(-c2cn(C)c(=O)c3[nH]ccc23)c1 [I-46] | < 500 nM | < 500 nM | 
2 | < 500 nM | 50 to 500 nM |  | CCS(=O)(=O)c1ccc(Oc2cccc(CCC3CCN(c4ccc(C(=O)N[C@H]5CC[C@H](Oc6ccc(C#N)c(Cl)c6)CC5)nn4)CC3)c2F)c(-c2cn(C)c(=O)c3[nH]ccc23)c1 [I-51] |  |  | 
3 |  | 50 to 500 nM | < 500 nM | CCS(=O)(=O)c1ccc(Oc2cccc(CCCC3CCN(c4ccc(C(=O)N[C@H]5CC[C@H](Oc6ccc(C#N)c(Cl)c6)CC5)nn4)CC3)c2F)c(-c2cn(C)c(=O)c3[nH]ccc23)c1 [I-52] |  |  | 
4 |  |  | < 500 nM | CCS(=O)(=O)c1ccc(Oc2cc(F)c(CCC3CCN(c4ccc(C(=O)N[C@H]5CC[C@H](Oc6ccc(C#N)c(Cl)c6)CC5)nn4)CC3)cc2F)c(-c2cn(C)c(=O)c3[nH]ccc23)c1 [I-59] | < 500 nM | 500 to 1500 nM | 
5 | 500 to 1500 nM |  |  | Cn1cc(-c2cc(C(C)(C)O)ccc2Oc2ccc(OC3CN(c4ccc(C(=O)N[C@H]5CC[C@H](Oc6ccc(C#N)c(Cl)c6)CC5)nn4)C3)cc2)c2cc[nH]c2c1=O [I-95, N-[4-(3-chloro-4-cyano-phenoxy)cyclohexyl]-6-[3-[4-[4-(1-hydroxy-1-methyl-ethyl)-2-(6-methyl-7-oxo-1H-pyrrolo[2,3-c]pyridin-4-yl)phenoxy]phenoxy]azetidin-1-yl]pyridazine-3-carboxamide] | < 500 nM | < 500 nM | 
6 |  |  |  | Cn1cc(-c2cc(C(C)(C)O)ccc2Oc2ccc(CCC3CCN(c4ccc(C(=O)N[C@H]5CC[C@H](Oc6ccc(C#N)c(Cl)c6)CC5)nn4)CC3)cc2)c2cc[nH]c2c1=O [I-102] | < 500 nM | < 500 nM | 50 to 500 nM
7 | < 500 nM | 50 to 500 nM |  | Cn1cc(-c2cc(C(C)(C)O)ccc2Oc2c(F)cc(CCOC3CCN(c4ccc(C(=O)N[C@H]5CC[C@H](Oc6ccc(C#N)c(Cl)c6)CC5)nn4)CC3)cc2F)c2cc[nH]c2c1=O [I-109] |  |  | 
8 | < 500 nM | 500 to 2500 nM |  | Cn1cc(-c2cc(C(C)(C)O)ccc2O[C@H]2C[C@H](N(C)CC3CCN(c4ccc(C(=O)N[C@H]5CC[C@H](Oc6ccc(C#N)c(Cl)c6)CC5)nn4)CC3)C2)c2cc[nH]c2c1=O [I-158, N-((1r,4r)-4-(3-chloro-4-cyanophenoxy)cyclohexyl)-6-(4-((((1r,3r)-3-(4-(2-hydroxypropan-2-yl)-2-(6-methyl-7-oxo-6,7-dihydro-1H-pyrrolo[2,3-c]pyridin-4-yl)phenoxy)cyclobutyl)(methyl)amino)methyl)piperidin-1-yl)pyridazine-3-carboxamide] |  |  | 

Row | Compound | GI50 ([3]; Homo sapiens) | IC50 [4] | GI50 [3] | GI50 [1] | GI50 [2] | Kd [5]
9 | CCS(=O)(=O)Nc1ccc(Oc2cccc(OCCOC3CCN(c4ccc(C(=O)N[C@H]5CC[C@H](Oc6ccc(C#N)c(Cl)c6)CC5)nn4)CC3)c2)c(-c2cn(C)c(=O)c3[nH]ccc23)c1 [I-1, N-[4-(3-chloro-4-cyano-phenoxy)cyclohexyl]-6-[4-[2-[3-[4-(ethylsulfonylamino)-2-(6-methyl-7-oxo-1H-pyrrolo[2,3-c]pyridin-4-yl)phenoxy]phenoxy]ethoxy]-1-piperidyl]pyridazine-3-carboxamide] | < 500 nM | 500 to 2500 nM |  | < 500 nM | < 500 nM | 
